These results are taken from ChEMBL document CHEMBL1156261, “Evaluation of substituted N,N'-diarylsulfonamides as activators of the tumor cell specific M2 isoform of pyruvate kinase” (J Med Chem, 2010).

Active and inactive are the calls of the source. No rule for the calls is given here.

For the assay, the target named is Pyruvate kinase (Leishmania mexicana) (UniProt Q27686). The experiment in a line: Activation of Leishmania mexicana pyruvate kinase by quantitative high throughput screening assay.
On to `O=S(=O)(c1c(F)cccc1F)C1CCN(S(=O)(=O)c2ccc3c(c2)OCCO3)CC1`, for which the outcome was inactive.

Consider `O=S(=O)(c1ccc(F)cc1)N1CCN(S(=O)(=O)c2ccc3c(c2)OCCO3)CC1`, for which the result was inactive.

`O=S(=O)(c1ccc2c(c1)OCCO2)N1CCN(S(=O)(=O)c2ccccn2)CC1`: the result was inactive.

For `COc1ccc(S(=O)(=O)N2CCN(S(=O)(=O)c3c(F)cccc3F)CC2)cc1`, the outcome was inactive.

On to `COc1ccc(S(=O)(=O)N2CCN(S(=O)(=O)c3ccc(OC)cc3)CC2)cc1`, for which the result was inactive.

Regarding `O=S(=O)(c1ccc(Cl)cc1)N1CCN(S(=O)(=O)c2ccc3c(c2)OCCO3)CC1`, the result was inactive.

As for `O=S(=O)(N[C@H]1CC[C@H](NS(=O)(=O)c2c(F)cccc2F)CC1)c1ccc2c(c1)OCCO2`, the result was inactive.

For `O=S(=O)(c1ccc2ccccc2c1)N1CCN(S(=O)(=O)c2c(F)cccc2F)CC1`, the outcome was inactive.

Regarding `O=S(=O)(NC1CCN(S(=O)(=O)c2ccc3c(c2)OCCO3)CC1)c1c(F)cccc1F`, the outcome was inactive.

`O=S(=O)(NC1CCN(S(=O)(=O)c2c(F)cccc2F)CC1)c1ccc2c(c1)OCCO2`: the outcome was inactive.

For the compound `O=C(c1c(F)cccc1F)N1CCN(S(=O)(=O)c2ccc3c(c2)OCCO3)CC1`, the outcome was inactive.

Turning to `COc1ccc(S(=O)(=O)N2CCN(S(=O)(=O)c3ccc4c(c3)OCCO4)CC2)cc1`, the outcome was inactive.

On to `COc1cc(F)c(S(=O)(=O)N2CCCN(S(=O)(=O)c3cccc(N)c3)CC2)c(F)c1`, for which the outcome was inactive.

Take `COc1cc(F)c(S(=O)(=O)N2CCN(S(=O)(=O)c3ccc4c(c3)OCCO4)CC2)c(F)c1`: the outcome was inactive.

For `O=S(=O)(c1cccc(C(F)(F)F)c1)N1CCN(S(=O)(=O)c2ccc3c(c2)OCCO3)CC1`, the outcome was inactive.

Turning to `O=S(=O)(NCCCCCCNS(=O)(=O)c1c(F)cccc1F)c1ccc2c(c1)OCCO2`, the outcome was inactive.

For the compound `Nc1cccc(S(=O)(=O)N2CCN(S(=O)(=O)c3c(F)cccc3F)CC2)c1`, the outcome was inactive.

Regarding `O=C(c1ccc2c(c1)OCCO2)N1CCN(S(=O)(=O)c2c(F)cccc2F)CC1`, the outcome was inactive.

Regarding `O=S(=O)(c1ccc2c(c1)OCO2)N1CCN(S(=O)(=O)c2c(F)cccc2F)CC1`, the result was inactive.

Turning to `O=C1CN(S(=O)(=O)c2ccc3c(c2)OCCO3)CCN1S(=O)(=O)c1c(F)cccc1F`, the outcome was inactive.

Turning to `O=S(=O)(N[C@H]1CC[C@@H](NS(=O)(=O)c2c(F)cccc2F)CC1)c1ccc2c(c1)OCCO2`, the result was inactive.

With `C[C@H]1CN(S(=O)(=O)c2ccc3c(c2)OCCO3)CCN1S(=O)(=O)c1c(F)cccc1F`, the result was inactive.

With `N#Cc1ccc(S(=O)(=O)N2CCN(S(=O)(=O)c3ccc4c(c3)OCCO4)CC2)cc1`, the outcome was inactive.

Turning to `CC1(C)CCc2cc(S(=O)(=O)N3CCN(S(=O)(=O)c4c(F)cccc4F)CC3)ccc2O1`, the result was inactive.

Regarding `COc1cc(F)c(S(=O)(=O)N2CCN(S(=O)(=O)c3cccc(N)c3)CC2)c(F)c1`, the outcome was inactive.

Regarding `COc1cccc(S(=O)(=O)N2CCN(S(=O)(=O)c3ccc4c(c3)OCCO4)CC2)c1`, the result was inactive.

With `O=S(=O)(c1ccc2c(c1)OCCO2)N1CCN(S(=O)(=O)c2cc(F)c(F)cc2F)CC1`, the outcome was inactive.

Take `C[C@@H]1CN(S(=O)(=O)c2c(F)cccc2F)CCN1S(=O)(=O)c1ccc2c(c1)OCCO2`: the result was inactive.

Turning to `O=S(=O)(NCCCNS(=O)(=O)c1c(F)cccc1F)c1ccc2c(c1)OCCO2`, the outcome was inactive.

On to `Cn1ccc2cc(S(=O)(=O)N3CCN(S(=O)(=O)c4c(F)cccc4F)CC3)ccc21`, for which the result was inactive.

`O=S(=O)(c1ccc2c(c1)OCCO2)N1CCN(S(=O)(=O)c2ccc(F)cc2F)CC1`: the result was inactive.

On to `O=S(=O)(c1cccc(F)c1)N1CCN(S(=O)(=O)c2ccc3c(c2)OCCO3)CC1`, for which the outcome was inactive.

For `O=C1CN(S(=O)(=O)c2c(F)cccc2F)CCN1S(=O)(=O)c1ccc2c(c1)OCCO2`, the result was inactive.

On to `C[C@H]1CN(S(=O)(=O)c2c(F)cccc2F)CCN1S(=O)(=O)c1ccc2c(c1)OCCO2`, for which the result was inactive.

Take `O=S(=O)(NCCNS(=O)(=O)c1c(F)cccc1F)c1ccc2c(c1)OCCO2`: the outcome was inactive.

As to `O=S(=O)(NCC1CN(S(=O)(=O)c2c(F)cccc2F)C1)c1ccc2c(c1)OCCO2`, the outcome was inactive.

`O=S(=O)(NC1CCN(S(=O)(=O)c2c(F)cccc2F)C1)c1ccc2c(c1)OCCO2` (centres undefined): the result was inactive.

On to `O=S(=O)(c1ccc2c(c1)OCCO2)N1CCN(S(=O)(=O)c2ccc3c(c2)OCCO3)CC1`, for which the result was inactive.

Turning to `O=S(=O)(c1ccccc1)N1CCN(S(=O)(=O)c2ccc3c(c2)OCCO3)CC1`, the result was inactive.

Consider `O=S(=O)(NCC1CN(S(=O)(=O)c2ccc3c(c2)OCCO3)C1)c1c(F)cccc1F`, for which the result was inactive.

Take `O=S(=O)(c1ccc2c(c1)OCCO2)N1CCN(S(=O)(=O)c2c(F)cccc2F)CC1`: the outcome was inactive.

On to `Nc1cccc(S(=O)(=O)N2CCCN(S(=O)(=O)c3ccc4c(c3)OCCO4)CC2)c1`, for which the outcome was inactive.

As for `Nc1cccc(S(=O)(=O)N2CCN(S(=O)(=O)c3ccc4c(c3)OCCO4)CC2)c1`, the outcome was inactive.

In the case of `O=S(=O)(c1ccc2c(c1)OCCO2)C1CCN(S(=O)(=O)c2c(F)cccc2F)CC1`, the result was inactive.

As to `O=S(=O)(c1ccc2c(c1)OCCO2)N1CCCN(S(=O)(=O)c2c(F)cccc2F)CC1`, the outcome was inactive.

With `O=S(=O)(NC1CCN(S(=O)(=O)c2ccc3c(c2)OCCO3)C1)c1c(F)cccc1F` (centres undefined), the outcome was inactive.

For the compound `O=S(=O)(c1ccc2c(c1)OCCO2)N1CCN(S(=O)(=O)c2ccccc2F)CC1`, the result was inactive.

`O=S(=O)(c1ccc2c(c1)OCCO2)N1CCN(S(=O)(=O)c2cccc[n+]2[O-])CC1`: the outcome was inactive.

With `O=S(=O)(NCCCCNS(=O)(=O)c1c(F)cccc1F)c1ccc2c(c1)OCCO2`, the outcome was inactive.

For the compound `O=S(=O)(NCCCCCNS(=O)(=O)c1c(F)cccc1F)c1ccc2c(c1)OCCO2`, the outcome was inactive.

Turning to `O=S(=O)(c1c(F)cccc1F)N1CCN(S(=O)(=O)c2c(F)cccc2F)CC1`, the outcome was inactive.

Take `C[C@@H]1CN(S(=O)(=O)c2ccc3c(c2)OCCO3)CCN1S(=O)(=O)c1c(F)cccc1F`: the outcome was inactive.

Regarding `O=S(=O)(c1ccc2c(c1)OCCCO2)N1CCN(S(=O)(=O)c2c(F)cccc2F)CC1`, the result was inactive.

As to `O=S(=O)(c1ccc2c(c1)OCCO2)N1CCN(S(=O)(=O)c2c(F)ccc(O)c2F)CC1`, the result was inactive.
